Assay results from patent US20080064668A1, “1,3-Diacylated, 26,27-Alkyl/Haloakyl Vitamin D3 Compounds and Methods of Use Thereof” (BioXell S.p.A., priority 2003, published 2008).

Legend:
HT 1376 = test: Proliferation assay using bladder cancer cell lines, HT1376; type: cell-based, human; conditions: Homo sapiens, HT-1376; 72 h culture, CyQuant proliferation assay
Experimental: (§1) Bladder cancer cell lines (T24, RT112, HT1376 and RT4 are human bladder cancer cell lines; NHEK are normal human keratinocytes) were obtained from the European Collection of Cell Cultures (Salisbury, UK). Cells were plated at 3×10^3 per well, in flat bottomed 96-well plates in 100 μl of DMEM medium containing: 5% Fetal Clone I, 50 μg/l gentamicin, 1 mM sodium pyruvate and 1% non-essential amino acids. After culturing for 24 h at 37° C. in 5% CO2, to allow cells to adhere to the plates, VDR ligands (compounds (2), (4), (5) and other vitamin D3 analogs as shown in Table 4) were added at concentrations ranging from 100 μM to 0.3 μM in 100 μl of above-mentioned complete medium. After a further 72 h of culture, cell proliferation was measured using a fluorescence-based proliferation assay kit. (CyQuant Cell Proliferation Assay Kit, Molecular Probes, Eugene, Oreg., USA). The IC50 was calculated from the regression curve of the titration data.

IFN-γ production = IFN-γ production in the mixed leukocyte response (MLR); type: cell-based; conditions: 120 h; allogeneic PBMC from 2 donors, 5 days, ELISA; read-out: INF-γ IC50
Experimental: Immature dendritic cells (DC) were prepared as described in Romani, N. et al. (Romani, N. et al. (1996) J. Immunol. Meth. 196:137). IFN-γ production by allogeneic T cell activation in the mixed leukocyte response (MLR) was determined as described in Penna, G., et al., J Immunol., 164: 2405-2411 (2000).
Briefly, peripheral blood mononuclear cells (PBMC) were separated from buffy coats by Ficoll gradient and the same number (3×10^5) of allogeneic PBMC from 2 different donors were co-cultured in 96-well flat-bottom plates. The vitamin D3 compounds were added to each of the cultures.

Human BPH cells = test: BPH cell proliferation assay (testosterone-induced); type: cell-based; conditions: 48 h
Experimental: Human BPH cells, prepared, maintained and used as previously described in Crescioli C, et al. Journal of Clinical and Endocrinology Metabolism (2000) 85 p 2576-2583, were obtained from prostate tissues derived from 5 patients, who underwent suprapubic adenomectomy for BPH, after informed consent and approval by the Local Ethical Committee.
For all cell proliferation assays, 4×10^4 BPH cells were seeded onto 12-well plates in their growth medium, starved in red- and serum-free medium containing 0.1% BSA for 24 h, and then treated with specific stimuli for 48 h. Cells in phenol red- and serum-free medium containing 0.1% BSA were used as controls. Thereafter, cells were trypsinized, and each experimental point was derived from hemocytometer counting, averaging at least six different fields for each well, as previously reported (see Crescioli C, et al. Journal of Clinical and Endocrinology Metabolism (2000) 85 p 2576-2583).
Growth assays were also carried out using a fixed concentration of androgens (10 nM) with or without vitamin-D analogs (1 nM, 10 nM) or the anti-androgens finasteride (F, 1 nM) and cyproterone acetate (Cyp, 100 nM. Growth assays were also performed using a fixed concentration of T (10 nM) or GFs (10 ng/ml) with or without the vitamin-D analogs. (10 nM).
In the same experiment, each experimental point was repeated in triplicate or quadruplicate and experiments were performed 3 times. Results are expressed as % variation (mean±SEM) over the maximal T or GF-induced stimulation.

[1] = Determination of Maximum Tolerated Dose (MTD); conditions: female, C57BL/6, mouse, in vivo, po
Experimental: The maximum tolerated dose of the vitamin D3 compounds of the invention were determined in eight week-old female C57BL/6 mice (3 mice/group) dosed orally (0.1 ml/mouse) with various concentrations of Vitamin D3 analogs daily for four days. Analogs were formulated in miglyol for a final concentration of 0.01, 0.03, 0.1 0.3, 1, 3, 10, 30, 100 and 300 μg/kg when given at 0.1 ml/mouse p.o. daily. Blood for serum calcium assay was drawn by tail bleed on day five, the final day of the study.

ECV = test: Proliferation assay using bladder cancer cell lines, ECV; type: cell-based, human; conditions: Homo sapiens; 72 h culture, CyQuant proliferation assay
NHEK = test: Proliferation assay, NHEK normal human keratinocytes; type: cell-based; conditions: Homo sapiens, NHEK; 72 h culture, CyQuant proliferation assay
Experimental: as §1

[2] = MTD in CD1 mouse (highest non-hypercalcemic dose); conditions: in vivo
RT112 = test: Proliferation assay using bladder cancer cell lines, RT112; type: cell-based, human; conditions: Homo sapiens, 72 h culture, CyQuant proliferation assay
Experimental: as §1

RT4 = test: Proliferation assay using bladder cancer cell lines, RT4; type: cell-based, human; conditions: Homo sapiens, 72 h culture, CyQuant proliferation assay
Experimental: as §1

[3] = tested on: human stromal bladder cells; test: Inhibition of basal human bladder cell growth; type: cell-based
Source text: The Inventors confirmed the presence of vitamin D receptors (VDRs), as previously reported in the literature, on these cells (see below in FIG. 3).
(§2) The maximum tolerated dose (MTD) in rats is also listed for each compound (Table 7).

[4] = Maximum tolerated dose (MTD) in rats (Table 7); conditions: rat, in vivo
Source text: as §2

Compound: CC(=O)OC1C/C(=C/C=C2\CCC[C@@]3(C)C2CCC3C2(CC#CC(O)(C(F)(F)F)C(F)(F)F)CC2)C[C@@H](OC(C)=O)C1 (stereo partly drawn) [(27), 1,3-Di-O-acetyl-1,25-dihydroxy-20-cyclopropyl-23-yne-26,27-hexafluoro-19-nor-cholecalciferol]
- IC50 (HT 1376): 43 µM
- IC50 (IFN-γ production): 0.078 nM
- IC50 (Human BPH cells): 0.000794 µM
- MTD at 4 days [1]: 0.01 mg/kg
- IC50 (ECV): 25.5 µM
- IC50 (NHEK): 2.6 µM
- MTD [2]: 0.01 mg/kg

Compound: C=C1/C(=C\C=C2/CCC[C@]3(C)C(C(C)CC#CC(C)(C)O)=CCC23)CC(OC(C)=O)C[C@@H]1OC(C)=O (stereo partly drawn) [(7), 1,3-Di-O-acetyl-1,25-dihydroxy-16-ene-23-yne-cholecalciferol]
- IC50 (HT 1376): > 100 µM
- IC50 (IFN-γ production): 0.051 nM
- IC50 (Human BPH cells): 42.7 µM
- MTD at 4 days [1]: 0.01 mg/kg
- IC50 (ECV): 27.7 µM
- IC50 (NHEK): 4.8 µM
- MTD [2]: 0.01 mg/kg
- IC50 (RT112; RT-112, 72 h): 3 µM
- IC50 (RT4; RT-4, 72 h): 80 µM

Compound: C=C1/C(=C\C=C2/CCC[C@@]3(C)C2CCC3C2(CC#CC(C)(C)O)CC2)CC(OC(C)=O)C[C@@H]1OC(C)=O (stereo partly drawn) [(29), 1,3-Di-O-acetyl-1,25-dihydroxy-20-cyclopropyl-23-yne-cholecalciferol]
- IC50 ([3]; Homo sapiens): < 10000 µM
- IC50 (HT 1376): 80 µM
- IC50 (IFN-γ production): 0.0078 nM
- MTD [4]: 0.03 mg/kg
- IC50 (Human BPH cells): 0.00316 µM
- MTD at 4 days [1]: 0.03 mg/kg
- IC50 (ECV): 49.6 µM
- IC50 (NHEK): 5.9 µM
- MTD [2]: 0.03 mg/kg
- IC50 (RT112; RT-112, 72 h): 8 µM
- IC50 (RT4; RT-4, 72 h): 13 µM

Compound: C=C1/C(=C\C=C2/CCC[C@]3(C)[C@@H]([C@H](C)CCCC(C)(C)O)CC[C@@H]23)C[C@@H](O)C[C@@H]1O [Calcitriol, 1,25-dihydroxycholecalciferol, reference compound]
- inhibiting the basal growth of bladder cells ([3]; human stromal bladder cells in culture): effective
- IC50 (HT 1376): 50 µM
- IC50 (IFN-γ production): 0.022 nM
- IC50 (Human BPH cells): 0.0851 µM
- MTD at 4 days [1]: 0.001 mg/kg
- IC50 (NHEK): 4.9 µM
- MTD [2]: 0.001 mg/kg
- IC50 (RT112; RT-112): 19 µM
- IC50 (RT4; RT-4): 45 µM

Compound: CC(=O)OC1C/C(=C/C=C2\CCC[C@@]3(C)C2CCC3C2(CC#CC(OC(C)=O)(C(F)(F)F)C(F)(F)F)CC2)C[C@@H](OC(C)=O)C1 (stereo partly drawn) [(26), 1,3,25-Tri-O-acetyl-1,25-dihydroxy-20-cyclopropyl-23-yne-26,27-hexafluoro-19-nor-cholecalciferol]
- IC50 (HT 1376): > 100 µM
- IC50 (IFN-γ production): 0.922 nM
- IC50 (Human BPH cells): > 100000 µM
- MTD at 4 days [1]: 0.01 mg/kg
- IC50 (ECV): 63.5 µM
- IC50 (NHEK): 32.8 µM
- MTD [2]: 0.01 mg/kg
- IC50 (RT112; RT-112, 72 h): 15 µM
- IC50 (RT4; RT-4, 72 h): 5 µM

Compound: C=C1/C(=C\C=C2/CCC[C@]3(C)C(C(C)CC#CC(O)(C(F)(F)F)C(F)(F)F)=CCC23)CC(OC(C)=O)C[C@@H]1OC(C)=O (stereo partly drawn) [(14), 1,3-Di-O-acetyl-1,25-dihydroxy-16-ene-23-yne-26,27-hexafluoro-cholecalciferol]
- IC50 (HT 1376): > 100 µM
- IC50 (IFN-γ production): 0.0273 nM
- IC50 (Human BPH cells): 501 µM
- MTD at 4 days [1]: 0.01 mg/kg
- IC50 (ECV): > 100 µM
- IC50 (NHEK): 0.98 µM
- MTD [2]: 0.01 mg/kg
- IC50 (RT112; RT-112, 72 h): 26 µM
- IC50 (RT4; RT-4, 72 h): 19 µM

Compound: C=C1/C(=C\C=C2/CCC[C@@]3(C)C2CCC3C(C)CC#CC(C)(C)O)CC(OC(C)=O)C[C@@H]1OC(C)=O (stereo partly drawn) [(41), 1,3-Di-O-acetyl-1,25-dihydroxy-23-yne-cholecalciferol]
- IC50 (HT 1376): > 100 µM
- IC50 (IFN-γ production): 0.08 nM
- IC50 (Human BPH cells): 0.000724 µM
- MTD at 4 days [1]: 0.001 mg/kg
- IC50 (ECV): 40 µM
- IC50 (NHEK): 4.2 µM
- MTD [2]: 0.001 mg/kg
- IC50 (RT112; RT-112, 72 h): 8 µM
- IC50 (RT4; RT-4, 72 h): 85 µM
